Laboratory results published in PubChem BioAssay AID330 (DTP/NCI, 2004).
Where “and” joins values, the source holds several entries; their conditions need not be identical. Equal values may be shown once. Toxic doses and inconclusive results are not listed. Rule for the calls: active = survival T/C of 150% or more; inactive = T/C below 125% in these data.

Tested on: P388 leukemia ip, CD2F1 mice, survival T/C
Test: NCI In Vivo Anticancer Drug Screen. Data for tumor model P388 Leukemia (intraperitoneal) in CD2F1 (CDF1) mice
Conditions: endpoint: median survival time, higher = longer survival
Procedure, shortened: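 Mice carrying the transplanted tumor received test compound or vehicle. Survival was recorded in each group, and the value is the treated-group measurement divided by that of the vehicle-treated control group.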

[1] = dose: 60.0 mg/kg/injection, schedule: Q01DX005 (ip), vehicle: saline with Tween-80
[2] = dose: 120.0 mg/kg/injection, schedule: Q01DX005 (ip), vehicle: saline with Tween-80
[3] = dose: 240.0 mg/kg/injection, schedule: Q01DX005 (ip), vehicle: saline with Tween-80
[4] = dose: 50.0 mg/kg/injection, schedule: Q01DX005 (ip), vehicle: saline with Tween-80

Measured: T/C

CC(CCc1cccc2ccccc12)(C(=O)O)C(=O)O
inactive: dose: 50.0 mg/kg/injection, schedule: Q01DX009 (ip), vehicle: saline sonified 90 % of control | dose: 100.0 mg/kg/injection, schedule: Q01DX009 (ip), vehicle: saline sonified 100 % of control | dose: 200.0 mg/kg/injection, schedule: Q01DX009 (ip), vehicle: saline sonified 90 % of control

CCCCC(CCCCCC(CCCC)NCc1ccc2c(c1)OCO2)NCc1ccc2c(c1)OCO2 (configuration not stated)
inactive: dose: 3.12 mg/kg/injection, schedule: Q01DX009 (ip), vehicle: Klucel (hydroxypropylcellulose) (HPC) 102 % of control | dose: 6.25 mg/kg/injection, schedule: Q01DX009 (ip), vehicle: Klucel (hydroxypropylcellulose) (HPC) 97 % of control | dose: 12.5 mg/kg/injection, schedule: Q01DX009 (ip), vehicle: Klucel (hydroxypropylcellulose) (HPC) 100 % of control and 112 % of control

CC(C)(C)OOC(=O)/C=C/c1ccccc1
inactive: [1] 101 % of control | [2] 108 % of control | [3] 92 % of control

CCOC(=O)N/C=C/C(C)=O
inactive: [1] 98 % of control | [2] 100 % of control | [3] 106 % of control

CC1=CC2OC34COC3CC(OC(=O)C(F)(F)F)C4(C)C2(C)CC1 (configuration not stated)
inactive: dose: 24.0 mg/kg/injection, schedule: Q04DX003 (ip), vehicle: saline with Tween-80 120 % of control | dose: 37.5 mg/kg/injection, schedule: Q04DX003 (ip), vehicle: saline with Tween-80 113 % of control | dose: 55.0 mg/kg/injection, schedule: Q04DX003 (ip), vehicle: saline with Tween-80 112 % of control

COC(=O)C1=C(C)NC2(C)SC1C(C)C2C(=O)OC (configuration not stated)
inactive: dose: 12.5 mg/kg/injection, schedule: Q01DX009 (ip), vehicle: saline with Tween-80 92 % of control and 93 % of control | dose: 25.0 mg/kg/injection, schedule: Q01DX009 (ip), vehicle: saline with Tween-80 101 % of control and 93 % of control | dose: 50.0 mg/kg/injection, schedule: Q01DX009 (ip), vehicle: saline with Tween-80 90 % of control and 97 % of control | dose: 100.0 mg/kg/injection, schedule: Q01DX009 (ip), vehicle: saline with Tween-80 87 % of control and 90 % of control

CCSc1n[nH]c(=O)n1C
inactive: dose: 50.0 mg/kg/injection, schedule: Q01DX005 (ip), vehicle: saline 99 % of control and 110 % of control | dose: 100.0 mg/kg/injection, schedule: Q01DX005 (ip), vehicle: saline 108 % of control and 114 % of control and 97 % of control | dose: 200.0 mg/kg/injection, schedule: Q01DX005 (ip), vehicle: saline 108 % of control and 121 % of control and 98 % of control | dose: 400.0 mg/kg/injection, schedule: Q01DX005 (ip), vehicle: saline 101 % of control and 109 % of control

COC1=CC(=O)C(C/C=C/c2ccccc2)=CC1=O
inactive: dose: 2.5 mg/kg/injection, schedule: Q01DX009 (ip), vehicle: saline with Tween-80 103 % of control | dose: 5.0 mg/kg/injection, schedule: Q01DX009 (ip), vehicle: saline with Tween-80 105 % of control | dose: 10.0 mg/kg/injection, schedule: Q01DX009 (ip), vehicle: saline with Tween-80 105 % of control

Cc1cccc(Nc2n[nH]c(N)n2)c1
inactive: dose: 50.0 mg/kg/injection, schedule: Q01DX009 (ip), vehicle: Klucel (hydroxypropylcellulose) (HPC) 91 % of control | dose: 100.0 mg/kg/injection, schedule: Q01DX009 (ip), vehicle: Klucel (hydroxypropylcellulose) (HPC) 94 % of control

CC(C)CCc1c(N)nc(N)[nH]c1=O
inactive: dose: 12.5 mg/kg/injection, schedule: Q01DX005 (ip), vehicle: saline with Tween-80 101 % of control | dose: 25.0 mg/kg/injection, schedule: Q01DX005 (ip), vehicle: saline with Tween-80 97 % of control | [4] 97 % of control

Cc1ccc(C)c2c1C(=O)c1c(C)ccc(C)c1C2=O
inactive: dose: 1.5 mg/kg/injection, schedule: Q01DX005 (ip), vehicle: Klucel (hydroxypropylcellulose) (HPC) 99 % of control | dose: 3.0 mg/kg/injection, schedule: Q01DX005 (ip), vehicle: Klucel (hydroxypropylcellulose) (HPC) 94 % of control | dose: 6.0 mg/kg/injection, schedule: Q01DX005 (ip), vehicle: Klucel (hydroxypropylcellulose) (HPC) 89 % of control | dose: 50.0 mg/kg/injection, schedule: Q01DX005 (ip), vehicle: Klucel (hydroxypropylcellulose) (HPC) 90 % of control | dose: 100.0 mg/kg/injection, schedule: Q01DX005 (ip), vehicle: Klucel (hydroxypropylcellulose) (HPC) 87 % of control | dose: 200.0 mg/kg/injection, schedule: Q01DX005 (ip), vehicle: Klucel (hydroxypropylcellulose) (HPC) 86 % of control

O=[N+]([O-])CC(c1ccccc1)C(c1ccccc1)[N+](=O)[O-] (configuration not stated)
inactive: [4] 90 % of control | dose: 100.0 mg/kg/injection, schedule: Q01DX005 (ip), vehicle: saline with Tween-80 93 % of control | dose: 200.0 mg/kg/injection, schedule: Q01DX005 (ip), vehicle: saline with Tween-80 112 % of control

COC(=O)c1nc(N)nc(C(=O)OC)c1C(=O)c1ccc(Cl)c(Cl)c1
inactive: [1] 100 % of control | [2] 94 % of control
